Assay results taken from patent publication US12685735B2 (Foghorn Therapeutics Inc., priority 2020, dated 2026).
Where two headings read alike, the source gives them in different places.

Assays:
BRM = BRM (Homo sapiens, UniProt P51531); experiment: ATPase catalytic activity assay of BRM (ADP-Glo); assay type: biochemical; settings: for IC50: read-out: BRM IC50 (μM)*
How it was run: (§1)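 Luminescent ADP-Glo readout of ADP generated by ATP hydrolysis. Post-reaction: ATP depletion reagent, RT 40 min; detection reagent converting ADP→ATP, RT 60 min; luminescence read.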

BRG-1 = BRG-1 (Homo sapiens, UniProt P51532); experiment: ATPase catalytic activity assay of BRG-1 (ADP-Glo); assay type: biochemical; settings: ATPase catalytic activity, ADP-Glo; for IC50: read-out: BRG1 IC50 (μM)*; for Emax: read-out: BRG1 Max % Inhibition
How it was run: as §1

BRM, sequence (P51531 whole entry): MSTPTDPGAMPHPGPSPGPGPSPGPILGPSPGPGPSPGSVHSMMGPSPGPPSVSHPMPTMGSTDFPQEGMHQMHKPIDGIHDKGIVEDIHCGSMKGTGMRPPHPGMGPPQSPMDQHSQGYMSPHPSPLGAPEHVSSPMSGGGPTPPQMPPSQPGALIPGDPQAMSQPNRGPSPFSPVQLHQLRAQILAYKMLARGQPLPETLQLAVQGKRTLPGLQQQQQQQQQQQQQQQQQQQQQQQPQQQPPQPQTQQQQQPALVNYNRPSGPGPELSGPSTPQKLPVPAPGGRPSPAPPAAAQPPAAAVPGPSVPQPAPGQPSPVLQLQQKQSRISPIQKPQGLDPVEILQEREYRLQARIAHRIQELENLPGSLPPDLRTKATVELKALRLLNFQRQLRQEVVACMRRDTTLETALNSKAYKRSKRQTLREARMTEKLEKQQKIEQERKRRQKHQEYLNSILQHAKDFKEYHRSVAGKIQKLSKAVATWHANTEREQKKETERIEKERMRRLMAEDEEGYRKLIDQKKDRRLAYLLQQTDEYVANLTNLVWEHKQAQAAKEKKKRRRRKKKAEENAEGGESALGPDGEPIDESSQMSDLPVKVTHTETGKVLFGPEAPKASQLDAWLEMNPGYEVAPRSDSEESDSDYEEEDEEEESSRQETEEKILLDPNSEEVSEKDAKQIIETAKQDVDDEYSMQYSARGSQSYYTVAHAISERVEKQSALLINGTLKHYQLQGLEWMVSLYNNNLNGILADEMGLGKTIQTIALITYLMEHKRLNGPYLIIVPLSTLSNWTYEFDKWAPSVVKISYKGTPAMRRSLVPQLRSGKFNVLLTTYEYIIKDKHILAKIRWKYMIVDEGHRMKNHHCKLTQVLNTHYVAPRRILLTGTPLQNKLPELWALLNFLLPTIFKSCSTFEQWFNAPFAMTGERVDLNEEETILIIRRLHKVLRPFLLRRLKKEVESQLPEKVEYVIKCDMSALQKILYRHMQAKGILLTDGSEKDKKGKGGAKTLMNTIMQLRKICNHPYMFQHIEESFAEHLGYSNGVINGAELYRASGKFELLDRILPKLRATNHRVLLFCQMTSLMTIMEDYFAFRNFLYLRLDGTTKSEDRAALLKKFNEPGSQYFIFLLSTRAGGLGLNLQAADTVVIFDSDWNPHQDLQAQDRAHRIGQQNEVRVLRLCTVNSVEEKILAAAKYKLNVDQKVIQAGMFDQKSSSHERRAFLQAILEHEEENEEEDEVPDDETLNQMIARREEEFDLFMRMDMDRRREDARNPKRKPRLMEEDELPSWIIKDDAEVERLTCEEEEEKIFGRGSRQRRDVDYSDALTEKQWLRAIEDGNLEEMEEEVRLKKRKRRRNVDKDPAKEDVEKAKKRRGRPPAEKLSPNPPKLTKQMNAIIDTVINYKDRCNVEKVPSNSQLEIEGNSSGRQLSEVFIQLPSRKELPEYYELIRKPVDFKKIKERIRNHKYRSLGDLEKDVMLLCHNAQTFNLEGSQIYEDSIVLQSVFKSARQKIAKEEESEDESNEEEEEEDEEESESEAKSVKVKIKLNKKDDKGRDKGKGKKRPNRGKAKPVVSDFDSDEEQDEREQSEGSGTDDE
BRG-1, sequence (P51532 whole entry): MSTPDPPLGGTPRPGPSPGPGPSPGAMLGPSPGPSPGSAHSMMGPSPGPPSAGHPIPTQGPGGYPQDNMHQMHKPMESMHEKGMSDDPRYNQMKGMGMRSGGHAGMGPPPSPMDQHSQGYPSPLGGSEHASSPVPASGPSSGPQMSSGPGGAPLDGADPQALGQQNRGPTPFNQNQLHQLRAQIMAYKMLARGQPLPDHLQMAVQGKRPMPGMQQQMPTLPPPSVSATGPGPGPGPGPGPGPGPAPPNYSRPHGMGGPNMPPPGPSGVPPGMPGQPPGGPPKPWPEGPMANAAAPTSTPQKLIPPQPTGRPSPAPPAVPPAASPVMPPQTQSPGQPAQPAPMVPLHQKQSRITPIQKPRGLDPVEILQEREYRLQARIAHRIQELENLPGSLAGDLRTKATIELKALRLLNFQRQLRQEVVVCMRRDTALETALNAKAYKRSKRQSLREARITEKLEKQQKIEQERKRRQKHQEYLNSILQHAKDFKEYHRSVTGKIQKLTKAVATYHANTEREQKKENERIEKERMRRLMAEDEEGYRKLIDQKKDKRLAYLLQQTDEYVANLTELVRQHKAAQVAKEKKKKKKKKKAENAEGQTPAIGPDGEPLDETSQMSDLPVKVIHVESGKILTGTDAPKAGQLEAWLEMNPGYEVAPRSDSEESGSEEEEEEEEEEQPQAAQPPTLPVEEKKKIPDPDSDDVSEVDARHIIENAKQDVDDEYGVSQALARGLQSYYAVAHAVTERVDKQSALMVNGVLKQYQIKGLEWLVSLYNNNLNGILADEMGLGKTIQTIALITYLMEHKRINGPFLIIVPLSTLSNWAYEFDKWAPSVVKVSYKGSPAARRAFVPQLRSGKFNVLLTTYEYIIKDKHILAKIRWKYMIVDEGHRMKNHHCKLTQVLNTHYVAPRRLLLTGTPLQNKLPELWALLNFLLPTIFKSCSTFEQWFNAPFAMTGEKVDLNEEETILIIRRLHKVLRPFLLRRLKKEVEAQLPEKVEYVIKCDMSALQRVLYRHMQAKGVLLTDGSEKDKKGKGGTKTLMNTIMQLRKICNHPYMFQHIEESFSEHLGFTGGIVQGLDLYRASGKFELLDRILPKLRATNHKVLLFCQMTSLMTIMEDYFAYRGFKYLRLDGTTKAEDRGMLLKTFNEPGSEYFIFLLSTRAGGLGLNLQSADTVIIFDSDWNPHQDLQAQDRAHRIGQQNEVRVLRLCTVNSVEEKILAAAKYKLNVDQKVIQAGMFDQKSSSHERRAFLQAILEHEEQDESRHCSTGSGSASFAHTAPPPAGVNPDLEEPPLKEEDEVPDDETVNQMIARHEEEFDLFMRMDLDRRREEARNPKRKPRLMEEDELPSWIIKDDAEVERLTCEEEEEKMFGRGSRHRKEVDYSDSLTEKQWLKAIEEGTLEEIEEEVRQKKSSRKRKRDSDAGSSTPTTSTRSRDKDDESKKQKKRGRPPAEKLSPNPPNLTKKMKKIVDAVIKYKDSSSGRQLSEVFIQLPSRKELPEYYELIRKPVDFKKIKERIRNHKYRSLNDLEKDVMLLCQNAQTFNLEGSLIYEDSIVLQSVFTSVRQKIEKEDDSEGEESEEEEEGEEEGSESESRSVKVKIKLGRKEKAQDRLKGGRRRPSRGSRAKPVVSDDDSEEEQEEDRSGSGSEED

BRM Max % Inhibition (BRM) [%]	IC50 (BRM) [µM]	IC50 (BRG-1) [µM]	Emax (BRG-1) [%]	BRG1 Max % Inhibition (BRG-1) [%]	BRM Max % Inhibition (BRM; 30 nM BRM, 400 μM ATP) [%]	IC50 (BRM; 30 nM BRM, 400 μM ATP) [µM]	IC50 (BRG-1; 30 nM BRG-1, 400 μM ATP) [µM]	Emax (BRG-1; 30 nM BRG-1, 400 μM ATP) [%]	SMILES
>95	< 0.1	1 to 5	> 95	–	–	–	–	–	C[C@@H]1CN(c2cccc(-c3csc(NC(=O)CNC(=O)c4ccc5c(c4)[C@@]4(COC5)CC4(F)F)n3)n2)C[C@H](C)O1 [Compound 410, (R)-N-(2-((4-(6-((cis)-2,6-dimethylmorpholino)pyridin-2-yl)thiazol-2-yl)amino)-2-oxoethyl)-2,2-difluorospiro[cyclopropane-1,4′-isochromane]-6′-carboxamide]
>95	< 0.1	0.1 to 1	> 80	–	–	–	–	–	CC1(CO)CCc2ccc(C(=O)NCC(=O)Nc3nc(-c4cccc(-c5ccncc5)c4)cs3)cc21 (stereo not shown) [Compound 102]
>60	1 to 5	> 5	< 30	–	–	–	–	–	Cc1cc(-c2cccc(-c3csc(NC(=O)CNC(=O)c4cccc(C(C)(C)C(C)C)c4)n3)c2)cc(C)n1 [Compound 90]
>95	< 0.1	1 to 5	> 70	–	–	–	–	–	Cc1cc(-c2cccc(-c3csc(NC(=O)CNC(=O)c4cc(C)c(C)c(C(C)(C)CN)c4)n3)c2)cc(C)n1 [Compound 245, 3-(2-amino-1,1-dimethyl-ethyl)-N-[2-[[4-[3-(2,6-dimethyl-4-pyridyl)phenyl]thiazol-2-yl]amino]-2-oxo-ethyl]-4,5-dimethyl-benzamide]
>95	< 0.1	< 0.1	> 95	–	–	–	–	–	O=C(CNC(=O)c1ccc2c(c1)S(=O)(=O)CCCC2)Nc1nc(-c2cccc(-c3ccncc3)c2)cs1 [Compound 129, 1,1-dioxo-N-[2-oxo-2-[[4-[3-(4-pyridyl)phenyl]thiazol-2-yl]amino]ethyl]-2,3,4,5-tetrahydro-1benzothiepine-8-carboxamide]
>70	0.1 to 1	> 5	> 30	–	–	–	–	–	C[C@@H]1CN(c2cccc(-c3csc(NC(=O)CNC(=O)c4cccc5c4OCC[C@]5(C)C#N)n3)c2)C[C@H](C)O1 [Compound 148, (S)-4-cyano-N-(2-((4-(3-((cis)-2,6-dimethylmorpholino)phenyl)thiazol-2-yl)amino)-2-oxoethyl)-4-methylchroman-8-carboxamide]
>90	0.1 to 1	0.1 to 1	–	>70	–	–	–	–	CC1(CO)CCc2ccc(C(=O)NCC(=O)Nc3nc(-c4cccc(-c5ccncc5)c4)cs3)cc21 (single isomer, unassigned) [Compound 107]
>95	< 0.1	0.1 to 1	> 95	–	–	–	–	–	C[C@@]1(C#N)COCc2ccc(C(=O)NCC(=O)Nc3nc(-c4cccc(N5CC(F)(F)C5)c4)cs3)cc21 [Compound 342, (R)-4-cyano-N-(2-((4-(3-(3,3-difluoroazetidin-1-yl)phenyl)thiazol-2-yl)amino)-2-oxoethyl)-4-methylisochromane-6-carboxamide]
>95	< 0.1	< 0.1	> 95	–	–	–	–	–	COc1cc(F)cc(-c2csc(NC(=O)CNC(=O)c3ccc4c(c3)[C@](C)(C#N)COC4)n2)c1 [Compound 377, (R)-4-cyano-N-(2-((4-(3-fluoro-5-methoxyphenyl)thiazol-2-yl)amino)-2-oxoethyl)-4-methylisochromane-6-carboxamide]
>95	< 0.1	0.1 to 1	> 80	–	–	–	–	–	C[C@@H]1CN(c2cccc(-c3csc(NC(=O)CNC(=O)c4ccc5c(c4)[C@@H]([C@@H](C)O)CC5)n3)n2)C[C@H](C)O1 [Compound 142, (3S)-N-[2-[[4-[6-[(cis)-2,6-dimethylmorpholin-4-yl]-2-pyridyl]thiazol-2-yl]amino]-2-oxo-ethyl]-3-[(1R)-1-hydroxyethyl]indane-5-carboxamide]
>80	1 to 5	> 5	> 30	–	–	–	–	–	Cc1cc(C)c(C(C)(C)CN)cc1C(=O)NCC(=O)Nc1nc(-c2cccc(-c3ccncc3)c2)cs1 [Compound 89]
>95	0.1 to 1	1 to 5	> 70	–	–	–	–	–	C[C@@H]1CN(c2cccc(-c3csc(NC(=O)CNC(=O)c4ccc5c(c4)[C@@](C)(CO)CO5)n3)n2)C[C@H](C)O1 (single isomer, unassigned) [Compound 133]
>95	< 0.1	< 0.1	> 95	–	–	–	–	–	C[C@@]1(C#N)COCc2ccc(C(=O)NCC(=O)Nc3nc(-c4cc(F)c5c(c4)CCO5)cs3)cc21 [Compound 352, (R)-4-cyano-N-(2-((4-(7-fluoro-2,3-dihydrobenzofuran-5-yl)thiazol-2-yl)amino)-2-oxoethyl)-4-methylisochromane-6-carboxamide]
>95	0.1 to 1	0.1 to 1	> 95	–	–	–	–	–	COc1cccc(-c2csc(NC(=O)CNC(=O)c3ccc4c(c3)C(C)(F)CCCO4)n2)c1 (stereo in doubt) [Compound 325, (R)-5-fluoro-N-(2-((4-(3-methoxyphenyl)thiazol-2-yl)amino)-2-oxoethyl)-5-methyl-2,3,4,5-tetrahydrobenzo[b]oxepine-7-carboxamide]
>95	< 0.1	0.1 to 1	> 90	–	–	–	–	–	Cc1cc(-c2cccc(-c3csc(NC(=O)CNC(=O)c4cccc(C(C)(C)CN)c4)n3)c2)cc(C)n1 [Compound 66, 3-(1-amino-2-methylpropan-2-yl)-N-(2-((4-(3-(2,6-dimethylpyridin-4-yl)phenyl)thiazol-2-yl)amino)-2-oxoethyl)benzamide]
>95	< 0.1	< 0.1	> 95	–	–	–	–	–	C[C@@]1(C#N)COCc2ccc(C(=O)NCC(=O)Nc3nc(-c4cc(F)cc(N5CCC5)c4)cs3)cc21 [Compound 364, (R)-N-(2-((4-(3-(azetidin-1-yl)-5-fluorophenyl)thiazol-2-yl)amino)-2-oxoethyl)-4-cyano-4-methylisochromane-6-carboxamide]
>95	< 0.1	0.1 to 1	> 90	–	–	–	–	–	C[C@@H]1CN(c2cccc(-c3csc(NC(=O)CNC(=O)c4cccc(C(C)(C)CN)c4)n3)c2)C[C@H](C)O1 [Compound 99]
>50	1 to 5	> 5	–	<30	–	–	–	–	C[C@]1(CO)CCc2ccc(C(=O)NCC(=O)Nc3nc(-c4ccn5ccnc5c4)cs3)cc21 [Compound 259, (S)-3-(hydroxymethyl)-N-(2-((4-(imidazo[1,2-a]pyridin-7-yl)thiazol-2-yl)amino)-2-oxoethyl)-3-methyl-2,3-dihydro-1H-indene-5-carboxamide]
>60	1 to 5	> 5	> 30	–	–	–	–	–	Cc1cc(-c2cccc(-c3csc(NC(=O)CNC(=O)c4ccc5c(c4)[C@@](C)(C#N)CC5)n3)n2)ncn1 [Compound 266, (3S)-3-cyano-3-methyl-N-[2-[[4-[6-(6-methylpyrimidin-4-yl)-2-pyridyl]thiazol-2-yl]amino]-2-oxo-ethyl]indane-5-carboxamide]
–	–	–	–	–	>95	< 0.1	0.1 to 1	> 95	C[C@@H]1CN(c2cccc(-c3csc(NC(=O)CNC(=O)c4ccc5c(c4)C(C#N)(CO)CCO5)n3)c2)C[C@H](C)O1 (stereo partly drawn) [Compound 444, 4-cyano-N-(2-((4-(3-((cis)-2,6-dimethylmorpholino)phenyl)thiazol-2-yl)amino)-2-oxoethyl)-4-(hydroxymethyl)chromane-6-carboxamide]
>60	0.1 to 1	> 5	< 30	–	–	–	–	–	CN1CC=Cc2ccc(C(=O)NCC(=O)Nc3nc(-c4cccc(-c5ccncc5)c4)cs3)cc2S1(=O)=O [Compound 130, 2-methyl-1,1-dioxo-N-[2-oxo-2-[[4-[3-(4-pyridyl)phenyl]thiazol-2-yl]amino]ethyl]-3H-1,2-benzothiazepine-8-carboxamide]
>95	< 0.1	0.1 to 1	> 90	–	–	–	–	–	C[C@@H]1CN(c2cccc(-c3csc(NC(=O)CNC(=O)c4cccc(C5(CO)CC5)c4)n3)n2)C[C@H](C)O1 [Compound 182, N-[2-[[4-[6-[(cis)-2,6-dimethylmorpholin-4-yl]-2-pyridyl]thiazol-2-yl]amino]-2-oxo-ethyl]-3-[1-(hydroxymethyl)cyclopropyl]benzamide]

SMILES	BRM Max % Inhibition (BRM) [%]	IC50 (BRM) [µM]	IC50 (BRG-1) [µM]	Emax (BRG-1) [%]	BRG1 Max % Inhibition (BRG-1) [%]	BRM Max % Inhibition (BRM; 30 nM BRM, 400 μM ATP) [%]	IC50 (BRM; 30 nM BRM, 400 μM ATP) [µM]	IC50 (BRG-1; 30 nM BRG-1, 400 μM ATP) [µM]	Emax (BRG-1; 30 nM BRG-1, 400 μM ATP) [%]
CC(C)S(=O)(=O)c1cccc(C(=O)NCC(=O)Nc2nc(-c3cccc(-c4cccc(C#N)c4)c3)cs2)c1 [Compound 24, N-(2-((4-(3′-cyano-[1,1′-biphenyl]-3-yl)thiazol-2-yl)amino)-2-oxoethyl)-3-(isopropylsulfonyl)benzamide]	>90	0.1 to 1	1 to 5	–	–	–	–	–	–
CC(C)S(=O)(=O)c1cccc(C(=O)NCC(=O)Nc2nc(-c3cccc(-c4cc(Cl)cc(Cl)c4)c3)cs2)c1 [Compound 30, N-(2-((4-(3′,5′-dichloro-[1,1′-biphenyl]-3-yl)thiazol-2-yl)amino)-2-oxoethyl)-3-(isopropylsulfonyl)benzamide]	>90	0.1 to 1	1 to 5	–	–	–	–	–	–
